Earlier results, collected in patent EP4699692A1, “ACIDIC GAS ADSORBENT, STRUCTURE COMPRISING ACIDIC GAS ADSORBENT, ACIDIC GAS ADSORPTION DEVICE, AND ACIDIC GAS ADSORBENT PRODUCTION METHOD” (Nitto Denko Corporation, priority 2023, dated 2024).

Key:
[1] = amine monomer
[2] = amine monomer; remark: listed apart in the source
[3] = amine monomer; regulatory class
[4] = amine monomer; regulatory class; remark: listed apart in the source

NCCNCCNCCN [TETA, triethylenetetramine]
Mutagenicity test (Ames test) [1]: Positive | Skin irritation test (rabbit) [2]: Strong irritant | Fire Service Act [3]: Hazardous material category IV class III petroleums | Poisonous and Deleterious Substances Control Act [4]: Deleterious substance
